These results are taken from patent publication US12721838B2 (Henry Ford Health System, priority 2020, dated 2026).

Data set [1] relates to LNCaP-ENR and MR49F ERPC cells. The data set is described as follows: In vitro invasion through extracellular matrix. It is filed as cell-based, human. The conditions noted are these: LNCaP-ENR and MR49F ERPC cells (data not shown).
The target of the next data set is T1, pure Trib2 protein (Homo sapiens, UniProt Q92519).
T1 sequence (Q92519 1-343): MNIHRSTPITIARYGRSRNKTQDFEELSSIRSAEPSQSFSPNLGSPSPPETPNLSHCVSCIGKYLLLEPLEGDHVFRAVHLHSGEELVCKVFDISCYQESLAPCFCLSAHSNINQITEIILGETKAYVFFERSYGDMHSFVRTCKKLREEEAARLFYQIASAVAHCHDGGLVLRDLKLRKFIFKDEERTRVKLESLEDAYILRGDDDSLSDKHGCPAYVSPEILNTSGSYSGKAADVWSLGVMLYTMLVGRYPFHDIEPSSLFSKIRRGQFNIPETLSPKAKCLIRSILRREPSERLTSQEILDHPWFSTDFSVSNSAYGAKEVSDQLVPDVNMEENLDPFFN
Briefly: Thermal shift assay by Differential Scanning Spectro-fluorometry. The conditions noted are these: decreased from 41° C. (DMSO only). It is filed as binding. An excerpt:
FIG. 8 depicts a graph showing the results of a thermal shift assay of pure Trib2 protein by Differential Scanning Spectro-fluorometry.

For data set [2] the following is noted: cited from earlier work.

As to `COC(=O)N[C@H](C(=O)N1CCC[C@H]1c1nc(-c2ccc(-c3ccc(-c4c[nH]c([C@@H]5CCCN5C(=O)[C@@H](NC(=O)OC)C(C)C)n4)cc3)cc2)c[nH]1)C(C)C` [Daclatasvir, 4,4′-bis[2-((2S)-1-{(2S)-2-[(methoxycarbonyl)amino]-3-methylbutanoyl}-2-pyrrolidinyl)-1H-imidazol-4-yl]-1,1′-biphenyl], the “in vitro invasion through extracellular matrix” value in data set [1] is “dramatically decreases”. The “Tm of Trib2 protein in presence of DCV” value on pure Trib2 protein was found to be 37 °C. For the same compound, the uptake rate entry in data set [2] (delivered orally) is “about 67%”. Further, the protein bound in data set [2] (in vivo) was ~ 99%. Also, in data set [2] (mammalian hosts), the half-life entry was “about 15 hours” and the tolerability result is “very well tolerated”.
